In patent publication US20250195521A1 (Revolution Medicines, Inc., priority 2020, published 2025):
Like-named read-outs stand apart in the source and are kept apart here.

Tests used:
NCI-H358 (K-Ras G12C) = assay: CellTiter-Glo cell viability assay, NCI-H358; format: cell-based, human; conditions: 5-day treatment, read-out: H358 Cell Viability assay data (K-Ras G12C, IC50)
How it was run: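 Luminescent CellTiter-Glo read-out on day 5 after compound exposure; signal expressed as percent of mean DMSO control; four-parameter logistic fit gives the value.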

[1] = tested on: K-Ras G12C (NCI-H358 cells); assay: Potency assay: pERK in NCI-H358 cells; format: cell-based, human; conditions: Homo sapiens; NCI-H358 cells, 4 hours; read-out: pERK EC50 (H358 KRAS G12C)
How it was run: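 Cells plated the day before were exposed for 4 h at 37° C, 5% CO2 to a 10-point, 3-fold DMSO dilution series (10 mM top stock), in duplicate. Phospho-ERK was read by AlphaLISA SureFire Ultra or by In-Cell Western with DRAQ5 DNA stain, and IC50 came from a 4-parameter sigmoidal fit.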

KRAS G13D = KRAS G13D (Homo sapiens (Human), UniProt P01116+P62937, G13D); assay: Ras-Raf disruption/FRET/MOA assay (BRAF RBD, Cyclophilin A); format: biochemical; conditions: read-out: KRAS G13D FRET data IC50
Sequence of KRAS G13D (P01116 other isoform, or with tags, fused parts or gaps G13D): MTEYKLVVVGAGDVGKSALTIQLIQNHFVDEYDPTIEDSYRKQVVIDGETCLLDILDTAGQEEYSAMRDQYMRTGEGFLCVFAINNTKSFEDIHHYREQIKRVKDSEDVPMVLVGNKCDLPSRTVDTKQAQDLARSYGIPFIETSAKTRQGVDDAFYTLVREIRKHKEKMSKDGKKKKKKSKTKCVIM
Sequence of KRAS G13D (P62937 whole entry): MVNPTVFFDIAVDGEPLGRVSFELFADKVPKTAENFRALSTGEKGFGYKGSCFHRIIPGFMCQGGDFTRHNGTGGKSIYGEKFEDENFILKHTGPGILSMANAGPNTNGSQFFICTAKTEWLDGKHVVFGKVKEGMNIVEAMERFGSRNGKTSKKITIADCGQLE
Experimental: (§1) Compound is present in plate wells as a 10-point 3-fold dilution series starting at a final concentration of 30 μM. After incubation at 25° C. for 3 hours, a mixture of Anti-His Eu—W1024 and anti-GST allophycocyanin is then added to assay sample wells at final concentrations of 10 nM and 50 nM, respectively, and the reaction incubated for an additional 1.5 hours. […] Compounds that facilitate disruption of a Ras: RAF complex are identified as those eliciting a decrease in the TR-FRET ratio relative to DMSO control wells.
(§2) Disruption of B-Raf Ras-Binding Domain (BRAF^RBD) Interaction with K-Ras by Compounds of the Invention (Also Called a FRET Assay or an MOA Assay)
(§3) Note—The following protocol describes a procedure for monitoring disruption of K-Ras G12C (GMP-PNP) binding to BRAF^RBD by a compound of the invention. This protocol may also be executed substituting other Ras proteins or nucleotides.
(§4) The purpose of this biochemical assay was to measure the ability of test compounds to facilitate ternary complex formation between a nucleotide-loaded K-Ras isoform and Cyclophilin A; the resulting ternary complex disrupts binding to a BRAF^RBD construct, inhibiting K-Ras signaling through a RAF effector. Data is reported as IC50 values.
(§5) In assay buffer containing 25 mM HEPES pH 7.3, 0.002% Tween20, 0.1% BSA, 100 mM NaCl and 5 mM MgCl2, tagless Cyclophilin A, His6-K-Ras-GMPPNP, and GST-BRAF^RBD were combined in a 384-well assay plate at final concentrations of 25 μM, 12.5 nM and 50 nM, respectively. Compound was present in plate wells as a 10-point 3-fold dilution series starting at a final concentration of 30 μM. After incubation at 25° C. for 3 hours, a mixture of Anti-His Eu—W1024 and anti-GST allophycocyanin was then added to assay sample wells at final concentrations of 10 nM and 50 nM, respectively, and the reaction incubated for an additional 1.5 hours. […] Compounds that facilitate disruption of a K-Ras: RAF complex were identified as those eliciting a decrease in the TR-FRET ratio relative to DMSO control wells.

KRAS G12S = KRAS G12S (Homo sapiens (Human), UniProt P01116+P62937, G12S); assay: as above; format: biochemical; conditions: read-out: KRAS G12S FRET IC50
Sequence of KRAS G12S (P01116 other isoform, or with tags, fused parts or gaps G12S): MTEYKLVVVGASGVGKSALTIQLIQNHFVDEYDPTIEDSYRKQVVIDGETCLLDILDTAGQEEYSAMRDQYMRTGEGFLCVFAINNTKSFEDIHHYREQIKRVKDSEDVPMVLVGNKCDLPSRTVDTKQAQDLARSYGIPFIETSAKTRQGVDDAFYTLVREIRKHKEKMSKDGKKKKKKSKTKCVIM
Sequence of KRAS G12S (P62937 whole entry): as the sequence (P62937 whole entry) above
Experimental: as §1, §2, §3, §4, §5

KRAS G12D = KRAS G12D (Homo sapiens (Human), UniProt P01116+P62937, G12D); assay: as above; format: biochemical; conditions: read-out: KRAS G12D FRET IC50
Sequence of KRAS G12D (P01116 other isoform, or with tags, fused parts or gaps G12D): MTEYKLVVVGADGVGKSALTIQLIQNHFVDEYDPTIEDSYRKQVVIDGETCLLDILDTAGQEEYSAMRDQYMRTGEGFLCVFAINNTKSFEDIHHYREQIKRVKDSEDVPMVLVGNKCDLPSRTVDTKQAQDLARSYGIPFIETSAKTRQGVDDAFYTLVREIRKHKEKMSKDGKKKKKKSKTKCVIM
Sequence of KRAS G12D (P62937 whole entry): as the sequence (P62937 whole entry) above
Experimental: as §1, §2, §3, §4, §5

KRAS WT = KRAS WT (Homo sapiens (Human), UniProt P01116+P62937); assay: as above; format: biochemical; conditions: read-out: KRAS WT FRET data IC50
Sequence of KRAS WT (P01116 other isoform, or with tags, fused parts or gaps): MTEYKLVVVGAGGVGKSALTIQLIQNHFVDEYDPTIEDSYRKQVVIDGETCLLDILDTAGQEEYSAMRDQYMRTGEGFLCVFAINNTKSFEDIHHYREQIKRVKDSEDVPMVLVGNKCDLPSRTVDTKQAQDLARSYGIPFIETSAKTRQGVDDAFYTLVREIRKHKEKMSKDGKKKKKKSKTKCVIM
Sequence of KRAS WT (P62937 whole entry): as the sequence (P62937 whole entry) above
Experimental: as §1, §2, §3, §4, §5

[2] = tested on: Capan-1 cells (K-Ras G12V); assay: CellTiter-Glo cell viability, Capan-1; format: cell-based, human; conditions: Homo sapiens, CAPAN-1, 120 h, K-Ras G12V, 5-day treatment; read-out: Capan-1 Cell Viability IC50
Experimental: Note—The following protocol describes a procedure for monitoring cell viability of K-Ras mutant cancer cell lines in response to a compound of the invention. Other RAS isoforms may be employed, though the number of cells to be seeded will vary based on cell line used.
Test compounds (132.5 nl) were directly dispensed into the assay plates containing cells. […] On day 5, assay plates and their contents were equilibrated to room temperature for approximately 30 minutes. […] Luminescence was measured using the PerkinElmer Enspire. Data were normalized by the following: (Sample signal/Avg. DMSO)*100. The data were fit using a four-parameter logistic fit.

| SMILES | EC50 [1] | IC50 (NCI-H358 (K-Ras G12C); Homo sapiens, NCI-H358, 120 h) | IC50 [2] | other results |
| --- | --- | --- | --- | --- |
| CCn1c(-c2cccnc2[C@H](C)OC)c2c3cc(ccc31)-c1cccc(c1)C[C@H](NC(=O)[C@H](C(C)C)N(C)C(=O)[C@H]1CCN(C(=O)/C=C/CN3CC(OC)C3)C1)C(=O)N1CCC[C@H](N1)C(=O)OCC(C)(C)C2 [Compound A204] | < 5000 nM |  |  | IC50 (NCI-H358 (K-Ras G12C)): 10 to 100 nM |
| CCn1c(-c2cccnc2[C@H](C)OC)c2c3cc(ccc31)-c1cc(O)cc(c1)C[C@H](NC(=O)[C@H](C(C)C)N(C)C(=O)[C@@H]1CN(C(=O)OC)C[C@@H]1C)C(=O)N1CCC[C@H](N1)C(=O)OCC(C)(C)C2 [Compound A325] |  |  | 10 to 100 nM | IC50 (KRAS G13D): 10 to 100 nM; IC50 (KRAS G12S): 10 to 100 nM; IC50 (KRAS G12D): 10 to 100 nM; IC50 (KRAS WT): 10 to 100 nM |
| C=CC(=O)N1CC[C@H](C(=O)N(C)[C@H](C(=O)N[C@H]2Cc3cc(sn3)-c3ccc4c(c3)c(c(-c3cccnc3[C@H](C)OC)n4CC)CC(C)(C)COC(=O)[C@@H]3CCCN(N3)C2=O)C(C)C)C1 [Compound A340] | < 5000 nM | 100 to 1000 nM |  |  |
| CCn1c(-c2cccnc2[C@H](C)OC)c2c3cc(ccc31)-c1csc(n1)C[C@H](NC(=O)[C@H](C(C)C)N(C)C(=O)N1CC[C@@H]1CN(C)C)C(=O)N1CCC[C@H](N1)C(=O)OCC(C)(C)C2 [Compound A502] | < 5000 nM | < 10 nM | 100 to 1000 nM |  |
| CCn1c(-c2cccnc2[C@H](C)OC)c2c3cc(ccc31)-c1csc(n1)C[C@H](NC(=O)[C@H](C(C)C)N(C)C(=O)N1CC3(CC(O)C3)C1)C(=O)N1CCC[C@H](N1)C(=O)OCC(C)(C)C2 [Compound A510] | < 5000 nM | 10 to 100 nM |  |  |
| CCn1c(-c2cccnc2[C@H](C)OC)c2c3cc(ccc31)-c1csc(n1)C[C@H](NC(=O)[C@H](C(C)C)N(C)C(=O)N1CCN3CCOC[C@H]3C1)C(=O)N1CCC[C@H](N1)C(=O)OCC(C)(C)C2 [Compound A548] |  | 100 to 1000 nM | 10 to 100 nM |  |
| CCn1c(-c2cccnc2[C@H](C)OC)c2c3cc(ccc31)-c1csc(n1)C[C@H](NC(=O)[C@H](C(C)C)N(C)C(=O)N1CC(N(C)S(C)(=O)=O)C1)C(=O)N1CCC[C@H](N1)C(=O)OCC(C)(C)C2 [Compound A550] | < 5000 nM | < 10 nM |  |  |

The next lines start with results.

| EC50 [1] | IC50 (NCI-H358 (K-Ras G12C); Homo sapiens, NCI-H358, 120 h) | SMILES | IC50 [2] | other results |
| --- | --- | --- | --- | --- |
| < 5000 nM | 10 to 100 nM | CCn1c(-c2cccnc2[C@H](C)OC)c2c3cc(ccc31)-c1cc(O)cc(c1)C[C@H](NC(=O)[C@H](C(C)C)N(C)C(=O)C1(CO)CC1)C(=O)N1CCC[C@H](N1)C(=O)OCC(C)(C)C2 [Compound A232] |  |  |
| < 5000 nM | < 10 nM | CCn1c(-c2cccnc2[C@H](C)OC)c2c3cc(ccc31)-c1cc(O)cc(c1)C[C@H](NC(=O)[C@H](C(C)C)N(C)C(=O)[C@H]1CCN(C(=O)[C@@H]3CCCN3C)C1)C(=O)N1CCC[C@H](N1)C(=O)OCC(C)(C)C2 [Compound A385] |  |  |
| < 5000 nM |  | CCn1c(-c2cccnc2[C@H](C)OC)c2c3cc(ccc31)-c1cc(O)cc(c1)C[C@H](NC(=O)[C@H](C(C)C)N(C)C(=O)[C@@H]1CCN(C(=O)OC)[C@@H]1c1ccccc1)C(=O)N1CCC[C@H](N1)C(=O)OCC(C)(C)C2 [Compound A501] | 100 to 1000 nM | IC50 (KRAS G13D): 10 to 100 nM; IC50 (KRAS G12D): 10 to 100 nM; IC50 (KRAS WT): 10 to 100 nM |
